Reference: PMC11440381, “Facile and scale-up syntheses of high-performance enzyme@meso-HOF biocatalysts” (Chemical Science, 2024)

Target: T1, horseradish peroxidase (HRP) (Armoracia rusticana, UniProt P00433)
T1 construct: gene PRXC1A; free or encapsulated in HOF-PTBA
T1 sequence (P00433 31-338): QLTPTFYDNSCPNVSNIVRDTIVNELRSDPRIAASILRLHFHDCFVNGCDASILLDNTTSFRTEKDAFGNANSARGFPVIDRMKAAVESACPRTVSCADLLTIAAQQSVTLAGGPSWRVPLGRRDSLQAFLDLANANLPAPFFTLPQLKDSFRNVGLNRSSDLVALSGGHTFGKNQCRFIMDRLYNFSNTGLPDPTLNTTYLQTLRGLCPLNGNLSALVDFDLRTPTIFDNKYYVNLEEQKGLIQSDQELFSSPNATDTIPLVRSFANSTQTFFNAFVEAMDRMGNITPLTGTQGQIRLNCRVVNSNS
Assay: GOx-HRP cascade, UV-vis of oxidised TMB
Assay type: biochemical
Conditions: co-substrate H2O2 made by GOx from glucose; free GOx&HRP mixture and GOx&HRP@HOF-PTBA both tested

Cc1cc(-c2cc(C)c(N)c(C)c2)cc(C)c1N [TMB]
GOx-HRP cascade, UV-vis of oxidised TMB: H2O2 subsequently acting as a substrate for HRP to catalyze the oxidation of TMB
